PMC10117725, “From an Hsp90 - binding protein to a peptide drug” (microLife, 2022)

Key:
[1] = system: S. aureus USA300 internalization by HaCaT cells; experiment: S. aureus USA300 invasion (internalization) into HaCaT keratinocytes; format: cell-based, human
Protocol: The invasion protocol was adapted from our previous papers (Nguyen et al. [2015], Tribelli et al. [2020]). About 5 × 10^5 Keratinocytes were seeded in a 24 well plate (Greiner, Frickenhausen, Germany) to attain a monolayer of ∼10^6 cells/well. Staphylococcusaureus was grown overnight at 37°C, centrifuged and suspended in invasion medium (DMEM with 10% FBS for HaCaT and K-SFM for NTERT-1 cells). The adherent keratinocytes were […], or 5 µM geldanamycin (Sigma-Aldrich, Germany) or monoclonal antibodies specific against Hsp90α (α‐Hsp90α, Abcam) for 1 h. After 1 h, 100 µl of bacterial suspension was added to each well to attain a MOI (multiplicity of infection) of 30 and incubated with cells for 1.5 h. Subsequently, the extracellular bacteria were killed with treatment of 2.5 μg/ml lysostaphin (Sigma-Aldrich, Germany) for 1.5 h. The cells were then washed, lysed, mechanically detached by scraping, diluted, and enumerated on TSA (Tryptic Soy Agar) plates to quantify the intracellular bacteria.

[2] = system: F-actin levels in HaCaT cells; experiment: F-actin measurement (ActinGreen 488 fluorescence) in HaCaT cells; format: cell-based, human; details: 35 µg/ml peptide (L15 20 µM, L13 30 µM), geldanamycin 5 µM; 1.5 h; ActinGreen 488 fluorescence relative to control
Protocol: (§1) About 5 × 10^4 cells were seeded in black flat bottom 96 well cell culture microplate (Greiner, Germany) and incubated overnight. The cells were then incubated with peptides or geldanamycin for 1.5 h. After incubation, the cells were washed, permeabilised with 0.1% (v/v) Triton X-100 and stained with ActinGreen™ 488 ReadyProbes® (Thermo Fischer, Germany) for 30 min. After the staining, the cells were washed and measure for its fluorescence at Excitation/Emission: 495/518 nm (Luqman et al. [2020]).

[3] = system: F-actin levels in N/TERT-1 cells; experiment: F-actin measurement (ActinGreen 488 fluorescence) in N/TERT-1 cells; format: cell-based, human; details: L15 20 µM, L13 30 µM, geldanamycin 5 µM; 1.5 h; relative to control
Protocol: as §1

HaCaT cells = experiment: MTT cytotoxicity in HaCaT cells; format: cell-based, human; details: MTT, 24 h, 1–200 µM
Protocol: (§2) MTT (3-(4,5-dimethylthiazol-2-yl)-2,5-diphenyl tetrazolium bromide) assay was employed to analyze the cytotoxicity of peptides and geldanamycin to the cells. 5 × 10^5 cells were seeded in a 96 flat bottom well plate and incubated for 2.5 or 24 h at 37°C with 5% CO2. The cells were then treated with increasing concentration (0 to 200 µM) of peptides or geldanamycin for 24 h. After the incubation, 10 μl of the MTT labelling reagent is added to each well to attain a final concentration 0.5 mg/ml, followed by 4 h incubation. Metabolically active cells convert the yellow tetrazolium salt to purple formazan crystals, which were solubilized using the solubilization solution (DMSO) and measured for absorbance at λmax/λref–570/690 nm (Saising et al. [2018]).

MONO-MAC-6 (MM6) cells = experiment: MTT cytotoxicity in MM6 cells; format: cell-based, human; details: 24 h, 1–200 µM
Protocol: as §2

S. aureus Newman = experiment: Galleria mellonella larvae infection model, S. aureus Newman; format: in vivo
Protocol: (§3) Galleria mellonella larvae, purchased from Feeders & more GmbH, Germany, were sorted based on weight and used within one week. Ten larvae per group with weight average of 500 mg/larvae were injected with bacteria and/or peptides on its last proleg using a BD insulin syringe. The dosage used for the experiment were 60 mg/kg for peptides, 5 mg/kg of geldanamycin and 20 mg/kg for vancomycin. Each larva was injected with 10 µl of L15 (last left proleg) 1 h before administration of 10^6 cfu S. aureus (last right proleg). The larvae were maintained at 37°C and observed for mortality every day over the course of 5 days.

[4] = system: Galleria mellonella larvae; experiment: Toxicity of tested doses to Galleria mellonella larvae
Protocol: as §3

[5] = system: phagocytosis by primary human CD14+ monocytes; experiment: Phagocytosis of S. aureus USA300 by CD14+ monocytes; format: cell-based; details: L15 20 µM, L13 30 µM, geldanamycin 5 µM, 60 min preincubation; MOI 30, 90 min; n = 4 donors; SEM
Protocol: Peripheral Blood Mononuclear cells (PBMCs) were isolated by density gradient centrifugation following the previous study (Nguyen et al. [2022]). From the pool of PBMCs, monocytes were isolated by positive selection with anti-human CD14 microbeads (Miltenyi Biotech, Bergisch-Gladbach, Germany) following a previously reported protocol (Nguyen et al. [2022]). The purity was analysed by flow cytometry on a BD Accuri C6 (BD Biosciences, Heidelberg, Germany) with anti-human CD14-FITC, CD45-PE and propidium iodide (BD Biosciences, Heidelberg, Germany) and ranged from 85% to 98%.
For the phagocytosis, 10^6 CD14^+ monocytes were seeded in 1 ml of medium (RPMI supplemented with L-Glutamine and 10% FCS) in a 12 well plate (Greiner, Germany). The cells were incubated with 20 µM of L15, 30 µM of L13, or 5 µM of Geldanamycin for 60 min at 37°C and 5% CO2 before addition of bacteria. For the phagocytosis assay, bacterial cells were resuspended in 100 µl RPMI medium at MOI of 30 and incubated with monocytes for 90 min. The cells were washed once with PBS and 0.5 ml of medium supplemented with 2.5 µg/ml of Lysostaphin was added for 90 min to remove the extracellular bacteria. Then, monocytes were washed twice with PBS and resuspended in 0.5 ml of milliQ dH2O. The cells were scraped, and the lysed solution was transferred into a new 1.5 ml Eppendorf tube for a 5 min sonication (frequency 80, power 100) at room temperature to prevent the bacterial cell clumping by using ultrasonic water bath Elmasonic P (Elma Schmidbauer Gmb, Singen, Germany). About 10 µl fractions of undiluted, 10^−1, 10^−2, and 10^−3 dilutions were inoculated on tryptic soy agar (TSA) plates and incubated overnight at 37°C. The numbers of internalized bacteria were determined based on the manual counting of bacterial colony forming units (cfu) recovered on the agar plates.

[6] = system: S. aureus USA300 infected PBMCs; experiment: Cytokine release of S. aureus USA300 infected PBMCs (ELISA); format: cell-based, human; details: L15 20 µM, L13 30 µM, geldanamycin 5 µM, 20 h, vs unstimulated infected PBMCs
[7] = system: S. aureus USA300 invasion into N/TERT-1 cells; experiment: S. aureus USA300 invasion into N/TERT-1 keratinocytes; format: cell-based, human; details: pretreatment with L15 20 µM, L13 30 µM, geldanamycin 5 µM or α-Hsp90α antibody
Protocol: The invasion protocol was adapted from our previous papers (Nguyen et al. [2015], Tribelli et al. [2020]). About 5 × 10^5 Keratinocytes were seeded in a 24 well plate (Greiner, Frickenhausen, Germany) to attain a monolayer of ∼10^6 cells/well. Staphylococcusaureus was grown overnight at 37°C, centrifuged and suspended in invasion medium (DMEM with 10% FBS for HaCaT and K-SFM for NTERT-1 cells). The adherent keratinocytes were washed with PBS and supplemented with invasion medium followed by treatment with 20 µM of L15, 30 µM of L13, or 5 µM geldanamycin (Sigma-Aldrich, Germany) or monoclonal antibodies specific against Hsp90α (α‐Hsp90α, Abcam) for 1 h. After 1 h, 100 µl of bacterial suspension was added to each well to attain a MOI (multiplicity of infection) of 30 and incubated with cells for 1.5 h. Subsequently, the extracellular bacteria were killed with treatment of 2.5 μg/ml lysostaphin (Sigma-Aldrich, Germany) for 1.5 h. The cells were then washed, lysed, mechanically detached by scraping, diluted, and enumerated on TSA (Tryptic Soy Agar) plates to quantify the intracellular bacteria.

Hsp90α = target: T1, Hsp90α (Homo sapiens, UniProt P07900); format: binding; details: dot blot, 2 µg blotted on membrane, 20 µg recombinant Hsp90α at 4°C overnight, α-Hsp90α immunodetection
T1 construct: purchased Abcam
Protocol: Two µg of each peptide was blotted (dot blot) directly on PDV nitrocellulose membrane and blocked with ROTI®Block (Carl Roth, Germany). After washing, the membrane was then incubated with 20 μg of recombinant Hsp90α (Abcam)/Lpl1-his protein at 4°C overnight. In case of interaction studies with Hsp90α, α-Hsp90α (produced in mouse, Abcam) was used as the primary antibody and for interaction studies with Lpl1-his, Anti-6X His tag antibody (also produced in mouse, Sigma-Aldrich, Germany) was used. Alkaline phosphatase conjugated goat-α-mouse IgG (Sigma-Aldrich, Germany) served as the secondary antibody. Detection was done using BCIP®/NBT solution (Sigma, Germany). Lpl1-his was isolated and purified as described in our previous paper (Tribelli et al. [2020]).

## COC1=C2C[C@@H](C)C[C@H](OC)[C@H](O)[C@@H](C)/C=C(\C)[C@H](OC(N)=O)[C@@H](OC)/C=C\C=C(/C)C(=O)NC(=CC1=O)C2=O [Geldanamycin, geldanamycin, reference compound]
[1]; preincubation with L15 20 µM, L13 30 µM, geldanamycin 5 µM or α-Hsp90α antibody, MOI 30
  decrease in uptake/invasion of S. aureus USA300 by HaCaT cells compared to untreated control: approximately 75%
[2]
  Relative F-actin level in HaCaT: 0.88 ± 0.03
[3]
  relative F-actin content in N/TERT-1 cells: 0.82 ± 0.03
HaCaT cells
  concentration from which viability decreased gradually, HaCaT: ≥ 50 µM
MONO-MAC-6 (MM6) cells
  concentration from which viability decreased, MM6: ≥ 10 µM
S. aureus Newman; geldanamycin 5 mg/kg 1 h before infection, strain not restated in the sentence
  effect on survival of infected larvae: no or rather a negative effect on survival
[4]; in vivo
  toxicity of tested doses to larvae: not toxic to larvae
[5]
  decrease of phagocytosis of S. aureus into CD14+ monocytes: no significant impact
[6]; n = 4
  TNF-alpha production of infected PBMCs: inhibited
[6]; n = 5
  IL-6 production of infected PBMCs: inhibited
[7]
  invasion of S. aureus USA300 into N/TERT-1 cells: reduced USA300 invasion

## CN[C@H](CC(C)C)C(=O)N[C@H]1C(=O)N[C@@H](CC(N)=O)C(=O)N[C@H]2C(=O)N[C@H]3C(=O)N[C@H](C(=O)N[C@H](C(=O)O)c4cc(O)cc(O)c4-c4cc3ccc4O)[C@H](O)c3ccc(c(Cl)c3)Oc3cc2cc(c3O[C@@H]2O[C@H](CO)[C@@H](O)[C@H](O)[C@H]2O[C@H]2C[C@](C)(N)[C@H](O)[C@H](C)O2)Oc2ccc(cc2Cl)[C@H]1O [vancomycin, reference compound]
S. aureus Newman; peptides 60 mg/kg, vancomycin 20 mg/kg, injected 1 h before 10^6 cfu, 37°C
  larvae surviving on day 5, S. aureus Newman: 100%
[4]; peptides 60 mg/kg, geldanamycin 5 mg/kg, vancomycin 20 mg/kg
  toxicity of tested doses to larvae: not toxic to larvae

## DEIVKELRSRYNISTEKSPILKMHIDGDLKGSSVGYRKLEI DFSKRENSKLSVIEFLSYKPAKK [L26, Lpl1-derived peptide that increased S. aureus internalization]
[1]; positive control peptides, S. aureus USA300
  increase of invasion into HaCaT: approximately 1.5 fold
Hsp90α
  Interaction with Hsp90α: Yes
[2]
  Relative F-actin level in HaCaT: 1.25 ± 0.13

## EMKNNKIIL [L17, Lpl1-derived peptide]
Hsp90α
  Interaction with Hsp90α: No
[2]
  Relative F-actin level in HaCaT: 1.09 ± 0.20

## GKGNETKED [L1, Lpl1-derived peptide]
Hsp90α
  Interaction with Hsp90α: No
[2]
  Relative F-actin level in HaCaT: 0.95 ± 0.49

## NKPGEL [L8, Lpl1-derived peptide]
Hsp90α
  Interaction with Hsp90α: No
[2]
  Relative F-actin level in HaCaT: 0.96 ± 0.05
